Source: the NIST ThermoML archive (doi:10.1021/je034102r)
Numbers after ± are expanded uncertainties.

Experiment: molar heat capacity at saturation pressure
Settings: Small (less than 1 g) adiabatic calorimetry

CCCCn1cc[n+](C)c1.F[P-](F)(F)(F)(F)F [1-butyl-3-methylimidazolium hexafluorophosphate]
molar heat capacity [J/K/mol]
Settings | Crystal | Glass
32.95 K | – | 70.07 ± 0.42
32.97 K | 66.37 ± 0.41 | –
34.47 K | 69.5 ± 0.42 | –
34.52 K | – | 73.45 ± 0.44
35 K | 70.66 ± 0.46 | 74.31 ± 0.47
36.07 K | 72.74 ± 0.44 | –
36.17 K | – | 76.76 ± 0.46
37.71 K | 76.12 ± 0.46 | –
37.88 K | – | 79.79 ± 0.47
39.38 K | 79.31 ± 0.47 | –
39.66 K | – | 83.48 ± 0.5
40 K | 80.48 ± 0.51 | 83.89 ± 0.5
41.07 K | 82.46 ± 0.49 | –
41.55 K | – | 86.89 ± 0.5
42.76 K | 85.47 ± 0.5 | –
43.54 K | – | 90.3 ± 0.5
44.47 K | 88.38 ± 0.5 | –
45 K | 89.21 ± 0.58 | 92.46 ± 0.58
45.53 K | – | 93.29 ± 0.58
46.22 K | 91.38 ± 0.5 | –
47.48 K | – | 96.53 ± 0.58
48 K | 93.87 ± 0.58 | –
49.44 K | – | 99.69 ± 0.58
49.81 K | 96.36 ± 0.58 | –
50 K | 96.95 ± 0.58 | 100.6 ± 0.58
51.38 K | – | 102.7 ± 0.58
51.62 K | 99.36 ± 0.58 | –
53.34 K | – | 105.7 ± 0.58
53.48 K | 101.9 ± 0.58 | –
55.43 K | – | 108.8 ± 0.67
55.49 K | 104.4 ± 0.58 | –
57.6 K | – | 111.9 ± 0.67
57.62 K | 106.9 ± 0.58 | –
59.71 K | 109.9 ± 0.67 | –
59.75 K | – | 114.9 ± 0.67
60 K | 110.2 ± 0.67 | 115.6 ± 0.67
61.89 K | 112.3 ± 0.67 | 117.8 ± 0.67
64.01 K | – | 121.6 ± 0.67
64.13 K | 115.1 ± 0.67 | –
66.11 K | – | 123.9 ± 0.75
66.36 K | 118.1 ± 0.67 | –
68.19 K | – | 127.2 ± 0.75
68.68 K | 120.7 ± 0.67 | –
70 K | 122 ± 0.75 | 129.2 ± 0.75
70.41 K | – | 130 ± 0.75
71.13 K | 123.1 ± 0.75 | –
72.69 K | – | 132.8 ± 0.75
73.64 K | 125.8 ± 0.75 | –
75.03 K | – | 135.6 ± 0.75
76.05 K | 128.6 ± 0.75 | –
77.42 K | – | 138.4 ± 0.75
78.39 K | 130.8 ± 0.75 | –
79.89 K | – | 142.1 ± 0.83
80 K | 132.7 ± 0.75 | 141.8 ± 0.83
80.75 K | 133.5 ± 0.75 | –
82.45 K | – | 144.5 ± 0.83
83.19 K | 136 ± 0.75 | –
84.93 K | – | 147.7 ± 0.83
85.74 K | 138.7 ± 0.83 | –
87.39 K | – | 150.3 ± 0.83
88.31 K | 141.4 ± 0.83 | –
89.83 K | – | 153.7 ± 0.83
90 K | 142.9 ± 0.75 | 154.1 ± 0.83
90.82 K | 143.8 ± 0.83 | –
92.25 K | – | 157.1 ± 0.83
93.26 K | 146.3 ± 0.83 | –
95.42 K | – | 160.5 ± 0.92
95.87 K | 149.1 ± 0.83 | –
97.92 K | – | 163.5 ± 0.92
98.65 K | 151.7 ± 0.83 | –
100 K | 153.2 ± 0.83 | 166 ± 0.83
100.28 K | 153.6 ± 0.83 | –
100.38 K | – | 166.5 ± 0.92
100.78 K | – | 167.5 ± 0.92
101.35 K | 154.9 ± 0.83 | –
102.77 K | 156.1 ± 0.83 | –
103.17 K | – | 170 ± 0.92
105.21 K | 158.5 ± 0.83 | –
105.51 K | – | 172.9 ± 0.92
107.6 K | 160.8 ± 0.92 | –
107.81 K | – | 175.4 ± 0.92
110 K | 163.1 ± 0.83 | 177.9 ± 0.92
110.06 K | – | 177.9 ± 1
